Measurements as given in paper PMC7031696 (Cell chemical biology, 2019).
“Also recorded” adds a separate entry of the source. Like-named read-outs stand apart in the source and are kept apart here.

Tested on: Plasmodium falciparum 3D7-A10 parasites
Experiment: Stage specificity assay (8-h exposure of synchronized stages, IC50^8h)
Format: cell-based
Conditions: for Ratio lowest IC50 8hr/IC50 72hr: 3D7-A10; for Stage of peak activity (Figure 6): period when the parasite was most susceptible (lowest IC50^8h)
[1] = read-out: Early rings Mean IC50 (IC50^8h), 8-h exposure 0–8 hr, 3D7-A10, survival at 60 h
[2] = read-out: Early trophozoites Mean IC50 (IC50^8h), 8-h exposure 16–24 hr, 3D7-A10, survival at 60 h
[3] = read-out: Late rings Mean IC50 (IC50^8h), 8-h exposure 8–16 hr, 3D7-A10, survival at 60 h
[4] = read-out: Late trophozoites Mean IC50 (IC50^8h), 8-h exposure 24–32 hr, 3D7-A10, survival at 60 h
[5] = read-out: Schizonts Mean IC50 (IC50^8h), 8-h exposure 32–40 hr, 3D7-A10, survival at 60 h

Compound | Ratio lowest IC50 8hr/IC50 72hr | Stage of peak activity (Figure 6) | IC50 [1] [µM] | IC50 [2] [µM] | IC50 [3] [µM] | IC50 [4] [µM] | IC50 [5] [µM] | killing in stage specificity assay (8-h exposures, survival curves) | IC50 (read-out: Early rings IC50 (IC50^8h), 8-h exposure 0–8 hr, bound given in μM) [µM] | IC50 (read-out: Late rings IC50 (IC50^8h), 8-h exposure 8–16 hr, bound given in μM) [µM] | Peak Activity (Table S1) (stage(s) with the lowest IC50^8h) | overall activity profile (stages on which active) (8-h exposures)
Ferroquine [reference compound] | 1.4 | early rings; also recorded: ring stages | 0.0049 | 0.0232 | 0.0109 | 0.0368 | 0.0493 |  |  |  |  | 
CC(C)(C)c1ccc2c(c1)CN(Cc1ccc(Cl)cc1)CO2 [MMV000442] | 4.7 | trophozoites |  | 0.176 |  | 0.197 | 0.503 | incomplete killing at all asexual blood stages | > 8 | > 8 | Trophs | 
CN(C)Cc1ccc(-c2cc3c(-c4ccc(CN(C)C)cc4)ccnc3[nH]2)cc1.O=C(O)C(F)(F)F [MMV022224] | 2.7 | rings and trophozoites | 0.838 | 0.542 | 0.845 | 0.752 | 2.49 |  |  |  |  | activity exclusively in rings and trophozoites but not in schizonts
CC(C)(C)NCc1cc(Nc2ccnc3cc(Cl)ccc23)c2c(c1O)CCCC2 [Naphtoquine, Naphthoquine, reference compound] | 1.3 | early rings; also recorded: ring stages | 0.0042 | 0.0195 | 0.0081 | 0.0292 | 0.0428 |  |  |  |  | 
